# Source: ChEMBL document CHEMBL5385846, “Discovery and development of palmatine analogues as anti-NASH agents by activating farnesoid X receptor (FXR)” (Eur J Med Chem, 2023)
# Calls of active or inactive are those of the source. The calls are words filed in the database; no cut-off is given here.
# How the values were obtained:
# [1] = Half life in CD-1 mouse liver microsomes at 1 micromol/L measured upto 60 mins in presence of NADPH by LC-MS/MS analysis; format: ADME, Microsome; conditions: 1 h, 1 µM, dose 1 µmol/L
# LX-2 [2] = experiment: Antifibrotic activity in TGF-beta1 induced human LX2 cells assessed as downregulation of TGF-beta1 mRNA expression incubated for 24 hrs by qRT-PCR analysis; format: functional, cell-based
# [3] = Metabolic stability in CD-1 mouse liver microsomes assessed as compound remaining at 1 micromol/L measured upto 60 mins in presence of NADPH by LC-MS/MS analysis; format: ADME, Microsome; conditions: 1 h, 1 µM, dose 1 µmol/L
# Mus musculus [4] = experiment: Antifibrotic activity in CDAHFD induced non-alcoholic steatohepatitis C57BL/6N mouse model assessed as downregulation of TIMP1 mRNA expression at 200 mg/kg,po qd administration for 4 weeks by qRT-PCR analysis; format: functional, organism-based
# Rattus norvegicus [5] = experiment: Antifibrotic activity in bile duct ligation induced Sprague-Dawley rat liver fibrosis model assessed as downregulation of TIMP1 mRNA expression at 200 mg/kg,po qd administration for 14 days by qRT-PCR analysis; format: functional, organism-based; conditions: time 14.0 day
# LX-2 [6] = experiment: Antifibrotic activity in TGF-beta1 induced human LX2 cells assessed as downregulation of TIMP1 mRNA expression incubated for 24 hrs by qRT-PCR analysis; format: functional, cell-based
# Mus musculus [7] = experiment: Antifibrotic activity in CDAHFD induced non-alcoholic steatohepatitis C57BL/6N mouse model assessed as downregulation of TGF-beta1 mRNA expression at 200 mg/kg,po qd administration for 4 weeks by qRT-PCR analysis; format: functional, organism-based
# Mus musculus [8] = experiment: Antifibrotic activity in CDAHFD induced non-alcoholic steatohepatitis C57BL/6N mouse model assessed as decrease in collagen area at 200 mg/kg,po qd administration for 4 weeks by Masson's trichrome staining based analysis; format: functional, organism-based
# Mus musculus [9] = experiment: Anti-inflammatory activity in CDAHFD induced C57BL/6N mouse liver injury model assessed as downregulation of MCP1 mRNA expression in liver at 200 mg/kg,po qd administration for 4 weeks by qRT-PCR analysis; format: functional, organism-based
# [10] = Half life in Sprague-Dawley rat liver microsomes at 1 micromol/L measured upto 60 mins in presence of NADPH by LC-MS/MS analysis; format: ADME, Microsome; conditions: dose 1 µmol/L
# [11] = Cytotoxicity against human LX2 cells assessed as inhibition of cell growth; format: toxicity, cell-based, LX-2
# [12] = Metabolic stability in Sprague-Dawley rat liver microsomes assessed as intrinsic clearance at 1 micromol/L measured upto 60 mins in presence of NADPH by LC-MS/MS analysis; format: ADME, Microsome; conditions: 1 h, 1 µM, dose 1 µmol/L
# [13] = Acute toxicity in Kunming mouse assessed as effect on blood urea nitrogen level at 250 to 1000 mg/kg,po administration; format: organism-based; conditions: in vivo, dose 250-1000 mg/kg
# Mus musculus [14] = experiment: Hepatoprotective activity in CDAHFD induced C57BL/6N mouse liver injury model assessed as decrease in total bilirubin level at 200 mg/kg,po qd administration for 4 weeks; format: functional, organism-based
# Mus musculus [15] = experiment: Hepatoprotective activity in CDAHFD induced C57BL/6N mouse liver injury model assessed as increase in glucose level at 200 mg/kg,po qd administration for 4 weeks; format: functional, organism-based
# [16] = Acute toxicity in Kunming mouse assessed as effect on […] level at 250 to 1000 mg/kg,po administration; format: organism-based; conditions: in vivo, dose 250-1000 mg/kg
# [17] = Metabolic stability in human liver microsomes assessed as microsomal intrinsic clearance at 1 micromol/L measured upto 60 mins in presence of NADPH by LC-MS/MS analysis; format: ADME, Microsome; conditions: dose 1 µmol/L, read-out: CLH
# Mus musculus [18] = experiment: Hepatoprotective activity in CDAHFD induced C57BL/6N mouse liver injury model assessed as increase in HDL level at 200 mg/kg,po qd administration for 4 weeks; format: functional, organism-based
# Mus musculus [19] = experiment: Anti-inflammatory activity in CDAHFD induced C57BL/6N mouse liver injury model assessed as downregulation of IL-1beta protein expression in liver at 200 mg/kg,po qd administration for 4 weeks by Western blotting analysis; format: functional, organism-based
# [20] = Metabolic stability in CD-1 mouse liver microsomes assessed as intrinsic clearance at 1 micromol/L measured upto 60 mins in presence of NADPH by LC-MS/MS analysis; format: ADME, Microsome; conditions: 1 h, 1 µM, dose 1 µmol/L
# Mus musculus [21] = experiment: Hepatoprotective activity in CDAHFD induced C57BL/6N mouse liver injury model assessed as inhibition of lipid peroxidation at 200 mg/kg,po qd administration for 4 weeks; format: functional, organism-based
# Mus musculus [22] = experiment: Anti-inflammatory activity in CDAHFD induced C57BL/6N mouse liver injury model assessed as downregulation of IL-6 mRNA expression in liver at 200 mg/kg,po qd administration for 4 weeks by qRT-PCR analysis; format: functional, organism-based
# Rattus norvegicus [23] = experiment: Hepatoprotective activity in bile duct ligation induced Sprague-Dawley rat liver injury model assessed as decrease in ALP level at 200 mg/kg,po qd administration for 14 days; format: functional, organism-based; conditions: time 14.0 day
# Mus musculus [24] = experiment: Anti-inflammatory activity in CDAHFD induced C57BL/6N mouse liver injury model assessed as downregulation of IL-6 protein expression in liver at 200 mg/kg,po qd administration for 4 weeks by Western blotting analysis; format: functional, organism-based
# Mus musculus [25] = experiment: Hepatoprotective activity in CDAHFD induced C57BL/6N mouse liver injury model assessed as reduction in fatty droplets at 200 mg/kg,po qd administration for 4 weeks by Oil red-O staining based microscopic analysis; format: functional, organism-based
# LX-2 [26] = experiment: Antifibrotic activity in TGF-beta1 induced human LX2 cells assessed as downregulation of TIMP1 protein expression incubated for 24 hrs by western blotting analysis; format: functional, cell-based
# Mus musculus [27] = experiment: Hepatoprotective activity in CDAHFD induced C57BL/6N mouse liver injury model assessed as increase in glutathione peroxidase level at 200 mg/kg,po qd administration for 4 weeks; format: functional, organism-based
# [28] = molecular target: Collagen alpha-1(I) chain (Homo sapiens) (UniProt P02452); experiment: Inhibition of COL1A1 (unknown origin) expressed in human LX2 cells at 20 micromol/L incubated for 48 hrs by Bright-Glo luciferase assay relative to control; format: cell-based; conditions: dose 20.0 µmol/L
# Rattus norvegicus [29] = experiment: Hepatoprotective activity in bile duct ligation induced Sprague-Dawley rat liver injury model assessed as decrease in AST level at 200 mg/kg,po qd administration for 14 days; format: functional, organism-based; conditions: time 14.0 day
# THP-1 = experiment: Anti-inflammatory activity in PMA differentiated human THP-1 cells assessed as downregulation of caspase-1 protein expression at 5 micromol/L incubated for 4 hrs followed by LPS and Nigericin addition for 3.5 hrs by Western blotting analysis; format: functional, cell-based; conditions: dose 5.0 µmol/L, time 7.5 hrs
# LX-2 [30] = experiment: Antifibrotic activity in TGF-beta1 induced human LX2 cells assessed as downregulation of COL1A1 mRNA expression incubated for 24 hrs by qRT-PCR analysis; format: functional, cell-based
# [31] = Half life in human liver microsomes at 1 micromol/L measured upto 60 mins in presence of NADPH by LC-MS/MS analysis; format: ADME, Microsome; conditions: dose 1 µmol/L
# Mus musculus [32] = experiment: Hepatoprotective activity in CDAHFD induced C57BL/6N mouse liver injury model assessed as decrease in AST level at 200 mg/kg,po qd administration for 4 weeks; format: functional, organism-based
# [33] = Acute toxicity in Kunming mouse assessed as effect on AST level at 250 to 1000 mg/kg,po administration; format: organism-based; conditions: in vivo, dose 250-1000 mg/kg
# Collagen alpha-1(I) chain (Homo sapiens), sequence (P02452 whole entry): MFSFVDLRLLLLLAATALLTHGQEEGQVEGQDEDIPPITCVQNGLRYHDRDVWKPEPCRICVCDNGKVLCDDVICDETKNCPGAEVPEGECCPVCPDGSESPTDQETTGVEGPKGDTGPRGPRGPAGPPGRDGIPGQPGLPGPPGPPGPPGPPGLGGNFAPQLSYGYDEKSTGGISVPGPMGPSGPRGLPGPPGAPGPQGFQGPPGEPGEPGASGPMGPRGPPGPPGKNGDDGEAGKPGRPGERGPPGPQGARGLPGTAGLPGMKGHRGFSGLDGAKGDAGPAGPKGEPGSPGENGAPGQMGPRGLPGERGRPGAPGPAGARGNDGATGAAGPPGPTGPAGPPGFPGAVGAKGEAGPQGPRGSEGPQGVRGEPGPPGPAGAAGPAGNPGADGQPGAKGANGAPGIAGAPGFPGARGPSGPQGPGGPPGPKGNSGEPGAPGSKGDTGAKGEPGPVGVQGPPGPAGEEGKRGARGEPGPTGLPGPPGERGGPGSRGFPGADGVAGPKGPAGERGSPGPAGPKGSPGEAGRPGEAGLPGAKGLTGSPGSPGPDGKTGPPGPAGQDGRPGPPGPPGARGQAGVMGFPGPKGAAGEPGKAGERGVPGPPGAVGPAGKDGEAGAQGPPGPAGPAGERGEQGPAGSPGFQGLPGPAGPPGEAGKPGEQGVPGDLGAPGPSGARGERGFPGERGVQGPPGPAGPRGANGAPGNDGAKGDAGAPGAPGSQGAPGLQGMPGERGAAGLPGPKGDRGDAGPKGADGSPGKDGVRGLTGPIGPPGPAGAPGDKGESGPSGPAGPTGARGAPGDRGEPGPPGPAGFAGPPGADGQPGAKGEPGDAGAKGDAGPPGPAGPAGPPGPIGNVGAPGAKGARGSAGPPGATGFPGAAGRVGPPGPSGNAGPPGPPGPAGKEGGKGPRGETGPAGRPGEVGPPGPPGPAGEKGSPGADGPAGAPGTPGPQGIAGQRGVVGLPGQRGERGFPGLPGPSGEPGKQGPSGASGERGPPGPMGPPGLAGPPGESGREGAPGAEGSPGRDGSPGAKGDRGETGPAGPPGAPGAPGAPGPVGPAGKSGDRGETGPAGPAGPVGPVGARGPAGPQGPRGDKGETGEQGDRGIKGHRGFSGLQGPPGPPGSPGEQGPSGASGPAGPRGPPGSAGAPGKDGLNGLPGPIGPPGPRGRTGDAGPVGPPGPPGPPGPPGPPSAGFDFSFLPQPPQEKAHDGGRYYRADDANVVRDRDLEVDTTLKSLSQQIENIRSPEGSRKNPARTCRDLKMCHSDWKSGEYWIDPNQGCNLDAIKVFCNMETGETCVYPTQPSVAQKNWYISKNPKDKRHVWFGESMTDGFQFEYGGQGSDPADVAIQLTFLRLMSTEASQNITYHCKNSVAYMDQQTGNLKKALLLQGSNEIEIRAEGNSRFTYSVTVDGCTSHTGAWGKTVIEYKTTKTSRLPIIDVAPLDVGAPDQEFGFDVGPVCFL
smiles,measurement,setting,value
COc1cc2c(cc1OC)-c1cc3ccc(OC)c(OCc4cccc(C)c4)c3c[n+]1CC2.[Br-],t1/2,[1],7.4 min
same,Activity,LX-2 [2],Dose-Dependent Effect
same,Stability,[3],39%
same,Activity,Mus musculus [4],Active
same,Activity,Rattus norvegicus [5],Active
same,Activity,LX-2 [6],Dose-Dependent Effect
same,Activity,Mus musculus [7],Active
same,Activity,Mus musculus [8],Active
same,Activity,Mus musculus [9],Active
same,half-life at 1 µM,[10],7.4 min
same,CC50,[11],70.4 µM
same,"CLint,scaled",[12],338 mL/min/kg
same,Activity,[13],Non-Toxic
same,Activity,Mus musculus [14],Active
same,Activity,Mus musculus [15],Active
same,Activity,[16],Non-Toxic
same,microsomal CLint at 1 µM,[17],26 µL/min/mg
same,Activity,Mus musculus [18],Active
same,Activity,Mus musculus [19],Active
same,"CLint,scaled",[20],744 mL/min/kg
same,Activity,Mus musculus [21],Active
same,Activity,Mus musculus [22],Active
same,Activity,Rattus norvegicus [23],Active
same,Activity,Mus musculus [24],Active
same,Activity,Mus musculus [25],Active
same,Activity,LX-2 [26],Dose-Dependent Effect
same,Activity,Mus musculus [27],Active
same,inhibition,[28],72.4%
same,Activity,Rattus norvegicus [29],Active
same,Activity,THP-1,Active
same,Activity,LX-2 [30],Dose-Dependent Effect
same,half-life at 1 µM,[31],53.3 min
same,Activity,Mus musculus [32],Active
same,Activity,[33],Non-Toxic
